Measured values reported in ChEMBL document CHEMBL3886358, “Quinolyl-containing hydroxamic acid compound and preparation method thereof, and pharmaceutical composition containing this compound and use thereof” (2015).

Experiments:
Histone deacetylase 2 = Histone deacetylase 2 (Homo sapiens, UniProt Q92769); test: (§1) Inhibition Assay: The inhibitions of activities of HDAC enzymes by the compounds N1'-[3-fluoro-4-[[7-[4-(hydroxyamino)-4-oxobutoxy]-6-methoxy-4-quinolyl]oxy]phenyl]-N1-(4-fluoro phenyl)cyclopropane-1,1-dicarboxamide prepared in Example 9 and N1'-[3-fluoro-4-[[7-[6-(hydroxyamino)-6-oxohexyloxy]-6-methoxy-4-quinolyl]oxy]phenyl]-N1-(4-fluo rophenyl)cyclopropane-1,1-dicarboxamide prepared in Example 13 were measured by Reaction Biology Corporation (Reaction Biology Corp., One Great Valley Parkway, Suite 2, Malvern, PA 19355, USA . http://www.reactionbiology.com/pages/hdac.htm). The HDAC enzymes tested include the following 11 HDAC isoforms: HDAC1, HDAC2, HDAC3, HDAC4, HDAC5, HDAC6, HDAC7, HDAC8, HDAC9, HDAC10 and HDAC11.Specific steps were as follows: The compound of the present invention was dissolved in dimethyl sulfoxide (DMSO) to make a stock solution of 10 mM. The stock solution was diluted in 4-fold series starting from 10 mM to prepare 10 different dosages.
Sequence of Histone deacetylase 2 (Q92769 whole entry, canonical isoform): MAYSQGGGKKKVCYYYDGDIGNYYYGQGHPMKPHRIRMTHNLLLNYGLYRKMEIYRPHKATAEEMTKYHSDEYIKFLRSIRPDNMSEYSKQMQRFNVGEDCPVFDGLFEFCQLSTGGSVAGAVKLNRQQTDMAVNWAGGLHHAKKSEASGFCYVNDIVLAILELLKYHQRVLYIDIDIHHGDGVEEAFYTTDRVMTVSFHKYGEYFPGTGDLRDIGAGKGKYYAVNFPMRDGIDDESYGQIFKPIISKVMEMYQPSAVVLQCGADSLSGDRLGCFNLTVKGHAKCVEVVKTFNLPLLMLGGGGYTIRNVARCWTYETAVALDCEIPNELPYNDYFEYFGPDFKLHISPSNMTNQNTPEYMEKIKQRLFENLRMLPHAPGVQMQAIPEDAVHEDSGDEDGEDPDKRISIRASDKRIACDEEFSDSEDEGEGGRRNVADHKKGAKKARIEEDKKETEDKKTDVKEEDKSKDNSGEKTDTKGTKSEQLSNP

Histone deacetylase 3 = Histone deacetylase 3 (Homo sapiens, UniProt O15379); test: as §1
Sequence of Histone deacetylase 3 (O15379 whole entry): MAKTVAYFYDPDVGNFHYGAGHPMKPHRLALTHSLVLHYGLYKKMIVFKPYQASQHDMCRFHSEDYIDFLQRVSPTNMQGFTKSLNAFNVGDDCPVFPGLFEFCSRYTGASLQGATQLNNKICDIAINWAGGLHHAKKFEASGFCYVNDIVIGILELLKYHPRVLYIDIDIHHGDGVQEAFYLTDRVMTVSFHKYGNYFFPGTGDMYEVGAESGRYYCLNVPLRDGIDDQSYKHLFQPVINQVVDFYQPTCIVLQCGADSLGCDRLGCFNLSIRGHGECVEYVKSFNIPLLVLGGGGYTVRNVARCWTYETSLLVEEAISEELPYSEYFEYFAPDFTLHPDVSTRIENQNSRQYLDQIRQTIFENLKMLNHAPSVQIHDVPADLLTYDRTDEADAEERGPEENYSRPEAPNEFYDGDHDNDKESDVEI

Histone deacetylase 4 = Histone deacetylase 4 (Homo sapiens, UniProt P56524); test: as §1
Sequence of Histone deacetylase 4 (P56524 whole entry): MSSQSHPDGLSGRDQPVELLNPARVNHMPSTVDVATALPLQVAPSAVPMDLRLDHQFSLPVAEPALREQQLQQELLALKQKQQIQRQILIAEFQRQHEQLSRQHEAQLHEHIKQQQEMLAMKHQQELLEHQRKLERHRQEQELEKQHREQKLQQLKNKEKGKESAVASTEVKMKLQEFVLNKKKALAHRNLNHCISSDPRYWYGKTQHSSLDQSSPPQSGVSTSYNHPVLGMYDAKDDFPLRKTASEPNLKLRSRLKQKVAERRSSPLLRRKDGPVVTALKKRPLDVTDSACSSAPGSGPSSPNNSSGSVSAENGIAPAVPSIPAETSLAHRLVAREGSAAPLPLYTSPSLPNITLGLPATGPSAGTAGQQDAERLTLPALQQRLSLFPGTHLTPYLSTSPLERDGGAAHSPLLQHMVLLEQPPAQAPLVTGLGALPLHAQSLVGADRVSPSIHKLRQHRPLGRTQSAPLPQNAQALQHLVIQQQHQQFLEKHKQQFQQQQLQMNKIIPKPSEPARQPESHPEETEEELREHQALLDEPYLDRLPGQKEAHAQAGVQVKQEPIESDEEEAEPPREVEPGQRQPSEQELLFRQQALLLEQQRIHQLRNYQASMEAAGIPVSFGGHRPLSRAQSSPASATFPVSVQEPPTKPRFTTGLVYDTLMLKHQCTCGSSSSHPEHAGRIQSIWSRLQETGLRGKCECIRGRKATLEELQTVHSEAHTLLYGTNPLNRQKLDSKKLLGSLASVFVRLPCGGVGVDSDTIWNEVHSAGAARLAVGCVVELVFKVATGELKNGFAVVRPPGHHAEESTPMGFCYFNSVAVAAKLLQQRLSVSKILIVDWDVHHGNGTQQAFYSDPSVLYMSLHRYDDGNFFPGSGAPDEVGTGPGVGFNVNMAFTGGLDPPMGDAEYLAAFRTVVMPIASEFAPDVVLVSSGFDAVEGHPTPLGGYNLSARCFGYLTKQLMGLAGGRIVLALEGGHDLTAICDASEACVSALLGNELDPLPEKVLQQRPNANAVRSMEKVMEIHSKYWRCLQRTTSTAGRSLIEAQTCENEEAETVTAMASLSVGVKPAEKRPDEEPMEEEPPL

Histone deacetylase 5 = Histone deacetylase 5 (Homo sapiens, UniProt Q9UQL6); test: as §1
Sequence of Histone deacetylase 5 (Q9UQL6 whole entry): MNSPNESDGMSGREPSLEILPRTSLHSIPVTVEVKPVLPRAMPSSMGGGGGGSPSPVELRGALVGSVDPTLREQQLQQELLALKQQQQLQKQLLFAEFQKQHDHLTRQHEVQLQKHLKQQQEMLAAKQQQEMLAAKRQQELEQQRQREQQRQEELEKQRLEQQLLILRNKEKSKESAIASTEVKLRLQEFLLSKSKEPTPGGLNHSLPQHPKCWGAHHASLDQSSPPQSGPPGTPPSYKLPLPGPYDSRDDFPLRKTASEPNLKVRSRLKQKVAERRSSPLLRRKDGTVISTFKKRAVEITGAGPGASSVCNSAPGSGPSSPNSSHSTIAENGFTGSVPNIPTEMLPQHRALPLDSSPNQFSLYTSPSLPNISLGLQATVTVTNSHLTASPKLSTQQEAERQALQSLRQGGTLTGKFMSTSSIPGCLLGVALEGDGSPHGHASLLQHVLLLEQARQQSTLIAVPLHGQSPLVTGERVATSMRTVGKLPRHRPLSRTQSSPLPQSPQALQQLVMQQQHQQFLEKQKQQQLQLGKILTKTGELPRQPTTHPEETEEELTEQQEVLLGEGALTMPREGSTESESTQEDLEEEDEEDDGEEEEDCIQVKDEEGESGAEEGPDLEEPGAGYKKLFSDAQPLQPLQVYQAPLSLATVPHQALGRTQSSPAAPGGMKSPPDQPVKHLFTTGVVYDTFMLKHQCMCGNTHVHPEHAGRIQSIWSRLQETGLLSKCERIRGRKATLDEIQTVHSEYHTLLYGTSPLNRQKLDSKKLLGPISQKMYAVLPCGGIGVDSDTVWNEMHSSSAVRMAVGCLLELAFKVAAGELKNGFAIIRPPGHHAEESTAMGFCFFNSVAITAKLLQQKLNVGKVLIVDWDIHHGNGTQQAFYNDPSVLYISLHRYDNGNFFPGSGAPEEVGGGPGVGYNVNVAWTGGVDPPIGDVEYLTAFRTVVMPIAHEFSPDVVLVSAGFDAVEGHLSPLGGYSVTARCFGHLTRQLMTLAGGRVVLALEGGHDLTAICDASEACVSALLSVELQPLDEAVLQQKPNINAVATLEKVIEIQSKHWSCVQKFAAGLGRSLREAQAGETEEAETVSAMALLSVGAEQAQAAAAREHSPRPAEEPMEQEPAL

Histone deacetylase 8 = molecular target: T1, Histone deacetylase 8 (Homo sapiens, UniProt Q9BY41); test: as §1
T1 sequence (Q9BY41 whole entry): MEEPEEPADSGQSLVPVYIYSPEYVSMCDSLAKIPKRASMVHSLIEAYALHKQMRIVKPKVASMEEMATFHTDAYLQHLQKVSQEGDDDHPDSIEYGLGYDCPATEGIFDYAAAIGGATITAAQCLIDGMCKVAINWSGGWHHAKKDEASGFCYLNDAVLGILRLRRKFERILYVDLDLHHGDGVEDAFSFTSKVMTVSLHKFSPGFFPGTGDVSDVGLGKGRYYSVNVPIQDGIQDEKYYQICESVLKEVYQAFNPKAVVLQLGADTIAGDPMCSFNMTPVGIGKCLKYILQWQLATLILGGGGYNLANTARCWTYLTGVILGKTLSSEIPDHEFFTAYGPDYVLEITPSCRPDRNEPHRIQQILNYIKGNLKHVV

Histone deacetylase 9 = Histone deacetylase 9 (Homo sapiens, UniProt Q9UKV0); test: as §1
Sequence of Histone deacetylase 9 (Q9UKV0 whole entry): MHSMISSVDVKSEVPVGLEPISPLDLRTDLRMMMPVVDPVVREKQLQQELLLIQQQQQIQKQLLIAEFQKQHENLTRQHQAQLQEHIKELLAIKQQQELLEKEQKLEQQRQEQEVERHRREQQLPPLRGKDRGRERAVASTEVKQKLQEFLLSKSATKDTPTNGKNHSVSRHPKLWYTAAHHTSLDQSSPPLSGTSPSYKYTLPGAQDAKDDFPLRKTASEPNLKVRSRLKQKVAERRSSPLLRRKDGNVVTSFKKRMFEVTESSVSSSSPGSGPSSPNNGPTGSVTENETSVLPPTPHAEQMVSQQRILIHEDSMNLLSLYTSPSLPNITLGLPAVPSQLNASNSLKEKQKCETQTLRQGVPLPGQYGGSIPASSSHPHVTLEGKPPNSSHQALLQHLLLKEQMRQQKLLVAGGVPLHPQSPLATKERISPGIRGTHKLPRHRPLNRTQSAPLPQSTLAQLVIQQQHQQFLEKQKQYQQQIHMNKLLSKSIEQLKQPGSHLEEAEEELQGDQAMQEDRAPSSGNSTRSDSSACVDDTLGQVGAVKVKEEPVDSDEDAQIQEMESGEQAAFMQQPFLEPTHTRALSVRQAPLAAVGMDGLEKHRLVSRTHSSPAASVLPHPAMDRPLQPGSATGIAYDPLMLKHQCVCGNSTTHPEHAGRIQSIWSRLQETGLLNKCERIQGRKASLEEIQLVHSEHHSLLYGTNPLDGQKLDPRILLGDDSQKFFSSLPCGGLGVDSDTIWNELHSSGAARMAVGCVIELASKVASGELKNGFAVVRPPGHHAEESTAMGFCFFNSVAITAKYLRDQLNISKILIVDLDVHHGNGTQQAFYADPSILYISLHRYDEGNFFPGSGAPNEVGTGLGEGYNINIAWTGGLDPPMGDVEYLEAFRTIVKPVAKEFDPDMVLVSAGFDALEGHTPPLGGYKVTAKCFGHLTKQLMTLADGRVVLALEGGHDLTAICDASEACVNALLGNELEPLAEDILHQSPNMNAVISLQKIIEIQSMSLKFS

[1] = molecular target: T2, Polyamine deacetylase HDAC10 (Homo sapiens, UniProt Q969S8); test: as §1
T2 sequence (Q969S8 whole entry): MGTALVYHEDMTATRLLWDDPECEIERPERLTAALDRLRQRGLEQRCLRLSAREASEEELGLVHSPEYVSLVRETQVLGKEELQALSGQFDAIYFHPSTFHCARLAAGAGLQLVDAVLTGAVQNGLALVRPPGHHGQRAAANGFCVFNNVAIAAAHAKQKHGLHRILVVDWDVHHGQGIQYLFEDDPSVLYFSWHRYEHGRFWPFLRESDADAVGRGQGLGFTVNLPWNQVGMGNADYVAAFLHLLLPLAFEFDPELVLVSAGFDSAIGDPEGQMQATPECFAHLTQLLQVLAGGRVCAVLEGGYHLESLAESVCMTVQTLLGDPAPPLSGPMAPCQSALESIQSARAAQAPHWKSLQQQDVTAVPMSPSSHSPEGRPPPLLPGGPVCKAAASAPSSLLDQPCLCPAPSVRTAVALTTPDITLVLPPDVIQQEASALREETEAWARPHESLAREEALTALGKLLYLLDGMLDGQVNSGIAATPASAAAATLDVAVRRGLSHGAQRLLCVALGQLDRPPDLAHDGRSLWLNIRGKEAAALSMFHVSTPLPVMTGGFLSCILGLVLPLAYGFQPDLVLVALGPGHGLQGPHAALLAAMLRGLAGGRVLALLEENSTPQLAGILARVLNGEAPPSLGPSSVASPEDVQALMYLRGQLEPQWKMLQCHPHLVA

[2] = molecular target: ALK tyrosine kinase receptor (Homo sapiens, UniProt Q9UM73); test: (§2) Sci. USA 1988, 85(23), 9312). Specific steps were as follows: The compound of the present invention was dissolved in dimethyl sulfoxide (DMSO) to make a stock solution of 2 mM, then the stock solution was diluted with DMSO following a 7 half-log series to concentrations ranging from 2 uM to 600 pM.; format: cell-based
[3] = molecular target: Hepatocyte growth factor receptor (Homo sapiens, UniProt P08581); test: as §2; format: cell-based
[4] = molecular target: Platelet-derived growth factor receptor beta (Homo sapiens, UniProt P09619); test: as §2; format: cell-based
[5] = molecular target: Proto-oncogene tyrosine-protein kinase Src (Homo sapiens, UniProt P12931); test: as §2; format: cell-based
Sequence of Proto-oncogene tyrosine-protein kinase Src (P12931 2-536 limits assumed): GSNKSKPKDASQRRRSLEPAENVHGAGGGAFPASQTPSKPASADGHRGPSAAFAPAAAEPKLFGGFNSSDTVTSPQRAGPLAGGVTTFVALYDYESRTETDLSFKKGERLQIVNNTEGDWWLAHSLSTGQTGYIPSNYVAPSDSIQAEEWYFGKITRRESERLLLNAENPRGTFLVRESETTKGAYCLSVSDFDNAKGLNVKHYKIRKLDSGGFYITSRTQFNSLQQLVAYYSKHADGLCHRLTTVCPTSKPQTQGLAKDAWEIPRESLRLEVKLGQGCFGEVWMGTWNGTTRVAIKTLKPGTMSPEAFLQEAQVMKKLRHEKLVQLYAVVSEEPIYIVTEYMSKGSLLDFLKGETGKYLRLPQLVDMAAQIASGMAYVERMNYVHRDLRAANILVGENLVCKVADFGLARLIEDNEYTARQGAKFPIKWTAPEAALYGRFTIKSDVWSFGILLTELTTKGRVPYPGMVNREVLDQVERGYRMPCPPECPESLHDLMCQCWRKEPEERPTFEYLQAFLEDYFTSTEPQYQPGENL

[6] = molecular target: T3, Tyrosine-protein kinase receptor UFO (Homo sapiens, UniProt P30530); test: as §2; format: cell-based
T3 sequence (P30530 whole entry): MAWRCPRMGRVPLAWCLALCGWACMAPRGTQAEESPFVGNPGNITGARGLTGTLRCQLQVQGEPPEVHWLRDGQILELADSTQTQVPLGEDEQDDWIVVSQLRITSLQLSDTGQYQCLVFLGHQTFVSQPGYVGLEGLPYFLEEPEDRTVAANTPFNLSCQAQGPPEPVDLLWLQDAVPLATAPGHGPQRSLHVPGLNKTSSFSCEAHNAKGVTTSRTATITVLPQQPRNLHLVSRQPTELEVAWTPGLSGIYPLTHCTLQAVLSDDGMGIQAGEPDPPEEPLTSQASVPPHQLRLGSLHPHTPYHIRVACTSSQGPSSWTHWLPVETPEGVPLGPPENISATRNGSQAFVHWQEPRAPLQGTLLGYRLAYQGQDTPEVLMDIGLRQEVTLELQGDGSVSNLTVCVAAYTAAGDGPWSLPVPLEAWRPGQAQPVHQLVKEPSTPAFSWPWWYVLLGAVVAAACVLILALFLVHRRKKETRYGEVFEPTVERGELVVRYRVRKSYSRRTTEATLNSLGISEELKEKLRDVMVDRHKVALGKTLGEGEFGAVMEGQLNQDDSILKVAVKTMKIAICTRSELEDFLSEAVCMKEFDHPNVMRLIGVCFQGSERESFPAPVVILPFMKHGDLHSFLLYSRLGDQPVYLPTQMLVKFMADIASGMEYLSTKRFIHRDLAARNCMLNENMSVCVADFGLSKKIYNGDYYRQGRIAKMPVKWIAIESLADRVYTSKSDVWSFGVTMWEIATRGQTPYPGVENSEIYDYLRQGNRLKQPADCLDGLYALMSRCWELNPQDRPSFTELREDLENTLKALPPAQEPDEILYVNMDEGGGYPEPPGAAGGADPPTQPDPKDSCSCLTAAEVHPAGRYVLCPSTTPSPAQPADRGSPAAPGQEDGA

[7] = molecular target: Vascular endothelial growth factor receptor 2 (Homo sapiens, UniProt P35968); test: as §2; format: cell-based

`COc1cc2c(Oc3ccc(NC(=O)C4(C(=O)Nc5ccc(F)cc5)CC4)cc3F)ccnc2cc1OCCCCCC(=O)NO` gave an IC50 (Histone deacetylase 2) of 2740 nM, an IC50 (Histone deacetylase 3) greater than 10000 nM and an IC50 (Histone deacetylase 4) greater than 10000 nM. The IC50 (Histone deacetylase 5) was greater than 10000 nM, the IC50 (Histone deacetylase 8) was 1630 nM and the IC50 (Histone deacetylase 9) was greater than 10000 nM. It also gave an IC50 [1] of 11900 nM.
In the case of `COc1cc2c(Oc3ccc(NC(=O)C4(C(=O)Nc5ccc(F)cc5)CC4)cc3F)ccnc2cc1OCCCC(=O)NO`, the IC50 [2] is reported as greater than 630 nM, the IC50 [3] is reported as 119 nM and the IC50 [4] is reported as 172 nM. The IC50 [5] was greater than 630 nM, the IC50 [6] was 19 nM and the IC50 [7] was 12 nM. The IC50 (Histone deacetylase 2) was 431 nM, the IC50 (Histone deacetylase 3) was greater than 10000 nM and the IC50 (Histone deacetylase 4) was greater than 10000 nM. For the same compound, the IC50 (Histone deacetylase 5) was greater than 10000 nM, the IC50 (Histone deacetylase 8) was 8940 nM and the IC50 (Histone deacetylase 9) was greater than 10000 nM. It also gave an IC50 [1] greater than 10000 nM.
